The values below come from US10336712B2, “Compound for enhancing the coupling degree of complex TRPV4-KCa2.3 and anti-hypertension applications thereof” (Jiangnan University, priority 2017, dated 2019).

Assay [1] concerns the target T1, endothelial cell ion channel complex TRPV4-KCa2.3 (Mus musculus, UniProt P58391+Q9EPK8).
T1 construct: The mesentery endothelial cells of the mice in the high blood pressure model are primarily isolated; endogenous in cells; host or cells: primary mesenteric endothelial cells of hypertensive C57BL/6J mice (high-salt, L-NAME, ANG-2 models)
Kind of assay: FRET AB detection of coupling of TRPV4 and KCa2.3 in mesentery endothelial cells of hypertensive mice. The assay is classed as cell-based, C57BL/6J mouse. The settings on record: 10 μM, 96 h, endothelial cells of 8% high-salt, L-NAME and ANG-2 hypertensive mice; FIG. 4. As to the method:
(§1) C57BL/6J Male mice, 8 weeks aged, are selected, and freely fed for one week. Then, the mice are classified into four groups, respectively 8% high-salt group, L-NAME group, ANG-2 group and reference group. The basic blood pressures of the four groups of mice are measured first to determine the base line of the blood pressure of the mice. The conditions of the reference group are not changed, and the blood pressure is measured every day. The high-salt group is fed with 8% high-salt feed, and then the blood pressure is measured every day. The L-name group is fed with 5% L-NAME solution, and then the blood pressure is measured every day. The ANG-2 group is injected with 4% chloral hydrate to perform anesthesia; then, the mice are respectively operated by implanting a pump on the back, wherein each pump is injected with 200 ul of 2.88 mg/ml ANG-2 solution; then, the mice are sutured and allowed to recover; after approximately 3 days, the measurement of the blood pressure begins, and then continues for about 4 weeks. […]
The mesentery endothelial cells of the mice in the high blood pressure model are primarily isolated and incubated in a constant-temperature cell incubator. […] Then, the coupling of the two proteins before and after the mutation is detected using the laser scanning confocal microscope in the FRET AB mode.

The subject of assay [2] is three high blood pressure types of mice models. Kind of assay: Blood pressure in three high blood pressure types of mice models. In kind it is in vivo, C57BL/6J mouse. The settings on record: 1 mg/kg injected via the caudal veins; 8% high-salt, L-NAME and ANG-2 models; FIG. 5. The method, then:
as §1
Experimental method: three high blood pressure types of mice models are constructed according to the method in Embodiment 4. After modeling succeeds, JNc-440 (1 mg/kg) is injected via the caudal veins, and then the blood pressure of the mice is measured and observed.

Assay [3] has as its target T2, protein KCa2.3 (structural domain 17C) (Mus musculus, UniProt P58391).
T2 construct: RIPA Lysis is carried out to obtain cellular protein; endogenous in cells; host or cells: primary mesenteric endothelial cells of C57BL/6J mouse
Briefly: Streptavidin magnetic bead pull-down of biotinylated JNc-440 from endothelial cell protein, Western blot detection. The assay is classed as binding, C57BL/6 J mouse. To be noted: FIG. 3. As to the method:
(§2) The endothelial cells of C57BL/6 J mouse mesentery are primarily isolated, and then incubated in a constant-temperature cell incubator. Biotinylated JNc-440 (10 μM/L) is added or oligopeptide and biotinylated JNc-440 (10 μM/L) are added into the incubator to jointly incubated with the cells for 96 h. RIPA Lysis is carried out to obtain cellular protein. The protein supernatant is added with 10 μL streptavidin magnetic beads, and the mixture is incubated at a temperature of 4° C. for a whole night. Suspension generated after the incubation is absorbed using a magnetic stand to obtain an avidin magnetic bead-biotinylated JNc-440-protein complex. The complex is suspended with 50 μL of 1× Loading buffer, and boiled for 5 min in a boiling bath. Samples are separated through SDS-PAGE. Proteins are transferred onto a PVDF membrane. The PVDF membrane with the proteins are confined in 5% BSA for 4 h at room temperature, then incubated with a primary antibody at a temperature of 4° C. for a whole night, and next incubated with a secondary antibody for 2 h at room temperature. ECL color developing agent is added. A protein imaging system is used to detect and analyze the obtained product.
(In general: A western blot detects proteins with antibodies after separation by electrophoresis.)

For assay [4], the target named is T3, protein TRPV4 (structural domain AR2) (Mus musculus, UniProt Q9EPK8).
T3 construct: RIPA Lysis is carried out to obtain cellular protein; endogenous in cells; host or cells: primary mesenteric endothelial cells of C57BL/6J mouse
T3 sequence (Q9EPK8 whole entry, the tested form may be a part): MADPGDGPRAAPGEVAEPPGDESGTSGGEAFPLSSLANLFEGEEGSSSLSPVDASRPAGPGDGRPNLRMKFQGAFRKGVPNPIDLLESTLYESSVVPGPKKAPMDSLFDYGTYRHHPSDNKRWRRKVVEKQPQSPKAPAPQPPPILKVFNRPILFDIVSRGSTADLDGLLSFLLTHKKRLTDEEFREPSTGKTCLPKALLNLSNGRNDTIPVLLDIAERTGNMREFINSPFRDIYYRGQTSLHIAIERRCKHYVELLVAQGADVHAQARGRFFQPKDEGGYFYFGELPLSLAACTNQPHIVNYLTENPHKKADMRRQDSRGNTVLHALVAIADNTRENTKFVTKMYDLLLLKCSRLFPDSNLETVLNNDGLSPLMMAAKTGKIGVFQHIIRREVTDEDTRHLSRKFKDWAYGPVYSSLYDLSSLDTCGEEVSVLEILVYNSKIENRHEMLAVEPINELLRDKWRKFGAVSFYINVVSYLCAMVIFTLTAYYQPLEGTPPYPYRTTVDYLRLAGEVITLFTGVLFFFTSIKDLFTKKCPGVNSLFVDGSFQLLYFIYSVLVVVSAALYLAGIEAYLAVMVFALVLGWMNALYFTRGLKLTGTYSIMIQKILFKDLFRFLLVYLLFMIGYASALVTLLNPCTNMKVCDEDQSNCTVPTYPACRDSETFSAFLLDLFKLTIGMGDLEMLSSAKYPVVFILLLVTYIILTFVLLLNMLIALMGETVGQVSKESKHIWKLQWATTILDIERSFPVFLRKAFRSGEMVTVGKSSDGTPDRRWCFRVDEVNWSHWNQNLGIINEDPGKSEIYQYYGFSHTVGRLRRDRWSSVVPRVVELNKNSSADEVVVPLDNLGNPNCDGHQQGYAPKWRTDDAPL
The description is as above. The assay is classed as binding, C57BL/6 J mouse. To be noted: FIG. 3. As to the method:
as §2

Where [5] appears, read: 10 μM/L, incubated 96 h with primary mouse mesentery endothelial cells.

As to `O=C(NCCCNC(=O)C(c1ccccc1)c1ccccc1)c1nc(=O)c2ccccc2[nH]1` [JNc-440], in assay [1], the “space coupling degree of the proteins TRPV4 and KCa2.3 (FRET)” value is listed as “increased obviously”. Also, the “blood pressure of the mice” value in assay [2] was “drops obviously”.

For the molecule `O=C1NC2CSC(CCCCC(=O)OCCCCCNc3nc(C(=O)NCCCNC(=O)C(c4ccccc4)c4ccccc4)nc4ccccc34)C2N1` (stereo not drawn) [biotinylated JNc-440], the “capability of binding with the protein KCa2.3 after the oligopeptide 17C is added” value in assay [3] (10 μM/L plus oligopeptide 17C, 96 h, compared with the reference control) is recorded as “obviously reduced”. Moreover, the “binding with the protein KCa2.3” value in assay [3] (setting [5]) was “can be bound”. Moreover, the “capability of binding with the protein TRPV4 after the oligopeptide AR2 is added” value in assay [4] (10 μM/L plus oligopeptide AR2, 96 h) was “obviously reduced”. In addition, in assay [4] (setting [5]), the “binding with the protein TRPV4” value was “can be bound”.
